# How the values were obtained:
# [1] = test system: ECHCG; assay: Pre-emergence herbicidal action against ECHCG; assay type: in vivo, Echinochloa crus-galli; conditions: 80 g/ha
# How it was run: (§1)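 Greenhouse pots of sandy loam held seeds covered with soil, onto which the compound was applied before emergence. An aqueous suspension or emulsion of WP or EC was used at 600 to 800 l/ha with 0.2% wetting agent. Percent damage was judged visually at 3 weeks.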
# [2] = test system: AVEFA; assay: Pre-emergence herbicidal action against AVEFA; assay type: in vivo, Avena fatua; conditions: 80 g/ha, pre-emergence
# How it was run: as §1
# [3] = test system: ALOMY; assay: Pre-emergence herbicidal action against ALOMY; assay type: in vivo, Alopecurus myosuroides; conditions: pre-emergence
# How it was run: as §1
# [4] = test system: AMARE; assay: Post-emergence herbicidal action against AMARE; assay type: in vivo, Amaranthus retroflexus; conditions: 20 g/ha, visual assessment about 3 weeks after treatment, 100% = plants have died, 0% = like control plants
# How it was run: (§2)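 A WP or EC formulation diluted in water with 0.2% wetting agent was sprayed at 600 to 800 l/ha onto one-leaf-stage plants grown in sandy loam. About 3 weeks later, action was rated visually in percent, 100% being dead plants.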
# [5] = test system: DIGSA; assay: Post-emergence herbicidal action against DIGSA; assay type: in vivo, Digitaria sanguinalis; conditions: 20 g/ha
# How it was run: as §2
# [6] = test system: SETVI; assay: Pre-emergence herbicidal action against SETVI; assay type: in vivo, Setaria viridis; conditions: dosage 80 g/ha
# How it was run: as §1
# [7] = test system: VERPE; assay: Pre-emergence herbicidal action against VERPE; assay type: in vivo, Veronica persica; conditions: dosage 80 g/ha
# How it was run: as §1
# [8] = test system: ABUTH; assay: Pre-emergence herbicidal action against ABUTH; assay type: in vivo, Abutilon theophrasti
# How it was run: as §1
# [9] = test system: ABUTH; assay: Post-emergence herbicidal action against ABUTH; assay type: in vivo, Abutilon theophrasti; conditions: visual assessment about 3 weeks after treatment vs untreated controls
# How it was run: as §2
# [10] = test system: MATIN; assay: Post-emergence herbicidal action against MATIN; assay type: in vivo, Matricaria inodora; conditions: dosage 20 g/ha
# How it was run: as §2
# [11] = test system: ECHCG; assay: Post-emergence herbicidal action against ECHCG; assay type: in vivo, Echinochloa crus-galli; conditions: dosage 20 g/ha
# How it was run: as §2
# [12] = test system: DIGSA; assay: Pre-emergence herbicidal action against DIGSA; assay type: in vivo, Digitaria sanguinalis
# How it was run: as §1
# [13] = test system: VIOTR; assay: Pre-emergence herbicidal action against VIOTR; assay type: in vivo, Viola tricolor
# How it was run: as §1
# [14] = test system: POLCO; assay: Pre-emergence herbicidal action against POLCO; assay type: in vivo, Polygonum convolvulus; conditions: dosage 80 g/ha
# How it was run: as §1
# [15] = test system: VIOTR; assay: Post-emergence herbicidal action against VIOTR; assay type: in vivo, Viola tricolor
# How it was run: as §2
# [16] = test system: AMARE; assay: Pre-emergence herbicidal action against AMARE; assay type: in vivo, Amaranthus retroflexus
# How it was run: as §1
# [17] = test system: PHBPU; assay: Pre-emergence herbicidal action against PHBPU; assay type: in vivo, Pharbitis purpurea; conditions: dosage 80 g/ha
# How it was run: as §1
# [18] = test system: MATIN; assay: Pre-emergence herbicidal action against MATIN; assay type: in vivo, Matricaria inodora
# How it was run: as §1
# [19] = test system: PHBPU; assay: Post-emergence herbicidal action against PHBPU; assay type: in vivo, Pharbitis purpurea; conditions: Ipomoea purpurea, 504 h, dosage 20 g/ha
# How it was run: as §2
# [20] = test system: SETVI; assay: Post-emergence herbicidal action against SETVI; assay type: in vivo, Setaria viridis; conditions: Setaria viridis, 504 h
# How it was run: as §2
# [21] = test system: ALOMY; assay: Post-emergence herbicidal action against ALOMY; assay type: in vivo, Alopecurus myosuroides; conditions: Alopecurus myosuroides, 504 h, visual assessment about 3 weeks after treatment vs untreated controls
# How it was run: as §2
# [22] = 80 g/ha, scored visually after 3 weeks vs untreated controls (100% = plants have died, 0% = like control plants)
structure (smiles),measurement,setting,value
CCn1nnnc1NC(=O)c1ccc(C(F)F)c(C(=O)NC)c1Br [Example 2-225],Pre-emergence action against ECHCG in %,[1],90%
same,Pre-emergence action against AVEFA in %,[2],80%
same,Pre-emergence action against ALOMY (herbicidal activity),[3]; [22],100%
same,Post-emergence action at 20 g/ha against AMARE in %,[4],100%
same,Post-emergence action against DIGSA,[5],100%
same,Pre-emergence action against SETVI in %,[6],100%
same,Pre-emergence action against VERPE in %,[7],100%
same,Pre-emergence action against ABUTH (herbicidal activity),[8]; [22],100%
same,Pre-emergence action against ABUTH (herbicidal activity in percent),"[8]; dosage 20 g/ha, scored visually after 3 weeks vs untreated controls, 100% = plants have died, 0% = like control plants",100%
same,Post-emergence action against ABUTH in %,[9]; dosage 5 g/ha,100%
same,Post-emergence action against ABUTH in %,[9]; dosage 20 g/ha,100%
same,Post-emergence action against MATIN in %,[10],80%
same,Post-emergence action against ECHCG in %,[11],100%
same,Pre-emergence action against DIGSA in %,[12]; dosage 20 g/ha,100%
same,Pre-emergence action against DIGSA in %,[12]; dosage 80 g/ha,100%
same,Pre-emergence action against VIOTR in %,[13]; dosage 20 g/ha,80%
same,Pre-emergence action against VIOTR in %,[13]; dosage 80 g/ha,100%
same,Pre-emergence action against POLCO in %,[14],90%
same,Post-emergence action against VIOTR in %,[15]; 5 g/ha,100%
same,Post-emergence action against VIOTR in %,[15]; 20 g/ha,100%
same,Pre-emergence action against AMARE in %,"[16]; 20 g/ha, scored visually after 3 weeks vs untreated controls, 100% = plants have died, 0% = like control plants",100%
same,Pre-emergence action against AMARE in %,[16]; [22],100%
same,Pre-emergence action against PHBPU in %,[17],90%
same,Pre-emergence action against MATIN in %,[18]; dosage 20 g/ha,80%
same,Pre-emergence action against MATIN in %,[18]; dosage 80 g/ha,100%
CCNC(=O)c1c(Cl)ccc(C(=O)Nc2nnnn2CC)c1Br [Example 2-348],pest or weed control at 80 g/ha,"[1]; Echinochloa crus-galli, 504 h",100%
same,pest or weed control at 80 g/ha,"[2]; Avena fatua, 504 h",100%
same,pest or weed control at 80 g/ha,"[3]; Alopecurus myosuroides, 504 h, 80 g/ha, scored visually after 3 weeks vs untreated controls (100% = plants have died, 0% = like control plants)",100%
same,pest or weed control at 20 g/ha,"[3]; Alopecurus myosuroides, 504 h, 20 g/ha, scored visually after 3 weeks, 100% = plants have died, 0% = like control plants",90%
same,pest or weed control at 20 g/ha,"[4]; Amaranthus retroflexus, 504 h",100%
same,pest or weed control at 80 g/ha,"[6]; Setaria viridis, 504 h",100%
same,pest or weed control at 80 g/ha,"[7]; Veronica persica, 504 h",80%
same,pest or weed control at 80 g/ha,"[8]; Abutilon theophrasti, 504 h, 80 g/ha, scored visually after 3 weeks vs untreated controls (100% = plants have died, 0% = like control plants)",100%
same,pest or weed control at 5 g/ha,"[9]; Abutilon theophrasti, 504 h, dosage 5 g/ha",90%
same,pest or weed control at 20 g/ha,"[9]; Abutilon theophrasti, 504 h, dosage 20 g/ha",90%
same,pest or weed control at 20 g/ha,"[11]; Echinochloa crus-galli, 504 h",80%
same,pest or weed control at 20 g/ha,[19],80%
same,pest or weed control at 80 g/ha,"[13]; Viola tricolor, 504 h, dosage 80 g/ha",100%
same,pest or weed control at 80 g/ha,"[14]; Fallopia convolvulus, 504 h",90%
same,pest or weed control at 5 g/ha,[20]; dosage 5 g/ha,80%
same,pest or weed control at 20 g/ha,[20]; dosage 20 g/ha,100%
same,pest or weed control at 5 g/ha,[21]; dosage 5 g/ha,80%
same,pest or weed control at 20 g/ha,[21]; dosage 20 g/ha,90%
same,pest or weed control at 20 g/ha,"[15]; Viola tricolor, 504 h, 20 g/ha",80%
same,pest or weed control at 20 g/ha,"[16]; Amaranthus retroflexus, 504 h, 20 g/ha, scored visually after 3 weeks vs untreated controls, 100% = plants have died, 0% = like control plants",100%
same,pest or weed control at 80 g/ha,"[16]; Amaranthus retroflexus, 504 h, 80 g/ha, scored visually after 3 weeks vs untreated controls, 100% = plants have died, 0% = like control plants",100%
same,pest or weed control at 80 g/ha,"[17]; Ipomoea purpurea, 504 h",80%
same,pest or weed control at 20 g/ha,"[18]; Tripleurospermum inodorum, 504 h, dosage 20 g/ha",90%
same,pest or weed control at 80 g/ha,"[18]; Tripleurospermum inodorum, 504 h, dosage 80 g/ha",90%

# — patent publication US12655116B2, “Substituted isophthalic acid diamides” (Bayer Aktiengesellschaft, priority 2020, dated 2026)
